Measured values taken from the NIST ThermoML archive (doi:10.1016/j.jct.2017.08.004).

Experiment: molar heat capacity at constant pressure
Details: 101.33 kPa, Crystal

OC[C@@H](O)C(O)[C@H](O)CO [D-arabitol]
Details | molar heat capacity at constant pressure [J/K/mol]
1 K, relaxation calorimetry | 0.0009451
1.937 K, relaxation calorimetry | 0.004787
2 K, relaxation calorimetry | 0.005256
2.125 K, relaxation calorimetry | 0.006243
2.35 K, relaxation calorimetry | 0.008303
2.6 K, relaxation calorimetry | 0.01105
2.887 K, relaxation calorimetry | 0.01495
3 K, relaxation calorimetry | 0.01673
3.199 K, relaxation calorimetry | 0.02023
3.546 K, relaxation calorimetry | 0.02753
3.931 K, relaxation calorimetry | 0.03744
4 K, relaxation calorimetry | 0.04001
4.359 K, relaxation calorimetry | 0.05185
4.836 K, relaxation calorimetry | 0.07292
5 K, relaxation calorimetry | 0.08105
5.366 K, relaxation calorimetry | 0.1017
5.953 K, relaxation calorimetry | 0.1443
6 K, relaxation calorimetry | 0.1475
6.605 K, relaxation calorimetry | 0.205
7 K, relaxation calorimetry | 0.2508
7.334 K, relaxation calorimetry | 0.2964
8 K, relaxation calorimetry | 0.4038
8.14 K, relaxation calorimetry | 0.43
9 K, relaxation calorimetry | 0.6157
9.034 K, relaxation calorimetry | 0.6226
10 K, relaxation calorimetry | 0.8917
10.11 K, relaxation calorimetry | 0.9222
11.21 K, relaxation calorimetry | 1.313
12.44 K, relaxation calorimetry | 1.849
13.81 K, relaxation calorimetry | 2.558
15 K, relaxation calorimetry | 3.255
15.35 K, relaxation calorimetry | 3.473
17.03 K, relaxation calorimetry | 4.645
18.91 K, relaxation calorimetry | 6.093
20 K, relaxation calorimetry | 6.963
21.01 K, relaxation calorimetry | 7.823
23.33 K, relaxation calorimetry | 9.878
25 K, relaxation calorimetry | 11.45
25.91 K, relaxation calorimetry | 12.28
28.73 K, relaxation calorimetry | 15.02
30 K, relaxation calorimetry | 16.29
31.9 K, relaxation calorimetry | 18.17
35 K, relaxation calorimetry | 21.27
35.42 K, relaxation calorimetry | 21.72
39.33 K, relaxation calorimetry | 25.68
40 K, relaxation calorimetry | 26.29
43.65 K, relaxation calorimetry | 29.96
45 K, relaxation calorimetry | 31.26
48.46 K, relaxation calorimetry | 34.52
50 K, relaxation calorimetry | 36.09
53.77 K, relaxation calorimetry | 39.56
55 K, relaxation calorimetry | 40.76
59.7 K, relaxation calorimetry | 45.1
60 K, relaxation calorimetry | 45.36
65 K, relaxation calorimetry | 49.82
66.28 K, relaxation calorimetry | 51.01
70 K, relaxation calorimetry | 54.16
73.58 K, relaxation calorimetry | 57.16
75 K, relaxation calorimetry | 58.37
80 K, relaxation calorimetry | 62.48
81.67 K, relaxation calorimetry | 64.04
85 K, relaxation calorimetry | 66.48
90 K, relaxation calorimetry | 70.37
90.67 K, relaxation calorimetry | 71
95 K, relaxation calorimetry | 74.17
100 K, relaxation calorimetry | 77.87
100.64 K, relaxation calorimetry | 77.78
110 K, relaxation calorimetry | 85.02
110.77 K, relaxation calorimetry | 85.2
120 K, relaxation calorimetry | 91.85
120.77 K, relaxation calorimetry | 92.62
130 K, relaxation calorimetry | 98.42
130.79 K, relaxation calorimetry | 99.38
140 K, relaxation calorimetry | 104.78
140.95 K, relaxation calorimetry | 105.44
150 K, relaxation calorimetry | 110.97
151.07 K, relaxation calorimetry | 111.74
160 K, relaxation calorimetry | 117.04
161.18 K, relaxation calorimetry | 117.79
170 K, relaxation calorimetry | 123.02
171.3 K, relaxation calorimetry | 123.63
180 K, relaxation calorimetry | 128.94
181.38 K, relaxation calorimetry | 129.86
188.15 K, Small sample (50 mg) DSC | 120.48
189.15 K, Small sample (50 mg) DSC | 123.07
190 K, relaxation calorimetry | 134.84
190.15 K, Small sample (50 mg) DSC | 124.65
191.15 K, Small sample (50 mg) DSC | 125.58
191.48 K, relaxation calorimetry | 135.82
192.15 K, Small sample (50 mg) DSC | 126.38
193.15 K, Small sample (50 mg) DSC | 127.14
194.15 K, Small sample (50 mg) DSC | 128.51
195.15 K, Small sample (50 mg) DSC | 129.68
196.15 K, Small sample (50 mg) DSC | 130.93
197.15 K, Small sample (50 mg) DSC | 131.96
198.15 K, Small sample (50 mg) DSC | 132.82
199.15 K, Small sample (50 mg) DSC | 133.79
200 K, relaxation calorimetry | 140.73
200.15 K, Small sample (50 mg) DSC | 134.6
201.15 K, Small sample (50 mg) DSC | 135.54
201.59 K, relaxation calorimetry | 141.2
202.15 K, Small sample (50 mg) DSC | 136.28
203.15 K, Small sample (50 mg) DSC | 137.06
204.15 K, Small sample (50 mg) DSC | 137.97
205.15 K, Small sample (50 mg) DSC | 138.38
206.15 K, Small sample (50 mg) DSC | 139.19
207.15 K, Small sample (50 mg) DSC | 139.97
208.15 K, Small sample (50 mg) DSC | 140.52
209.15 K, Small sample (50 mg) DSC | 141.24
210 K, relaxation calorimetry | 146.63
210.15 K, Small sample (50 mg) DSC | 141.94
211.15 K, Small sample (50 mg) DSC | 142.48
211.7 K, relaxation calorimetry | 147.25
212.15 K, Small sample (50 mg) DSC | 142.99
213.15 K, Small sample (50 mg) DSC | 143.53
214.15 K, Small sample (50 mg) DSC | 144.41
215.15 K, Small sample (50 mg) DSC | 145.07
216.15 K, Small sample (50 mg) DSC | 145.48
217.15 K, Small sample (50 mg) DSC | 146.17
218.15 K, Small sample (50 mg) DSC | 147.07
219.15 K, Small sample (50 mg) DSC | 147.64
220 K, relaxation calorimetry | 152.57
220.15 K, Small sample (50 mg) DSC | 148.47
221.15 K, Small sample (50 mg) DSC | 149.24
221.79 K, relaxation calorimetry | 153.65
222.15 K, Small sample (50 mg) DSC | 149.98
223.15 K, Small sample (50 mg) DSC | 150.71
224.15 K, Small sample (50 mg) DSC | 151.3
225.15 K, Small sample (50 mg) DSC | 152.01
226.15 K, Small sample (50 mg) DSC | 152.68
227.15 K, Small sample (50 mg) DSC | 153.31
228.15 K, Small sample (50 mg) DSC | 153.85
229.15 K, Small sample (50 mg) DSC | 154.52
230 K, relaxation calorimetry | 158.55
230.15 K, Small sample (50 mg) DSC | 155.25
231.15 K, Small sample (50 mg) DSC | 155.76
231.88 K, relaxation calorimetry | 159.8
232.15 K, Small sample (50 mg) DSC | 156.46
233.15 K, Small sample (50 mg) DSC | 157.18
234.15 K, Small sample (50 mg) DSC | 157.71
235.15 K, Small sample (50 mg) DSC | 158.49
236.15 K, Small sample (50 mg) DSC | 159.12
237.15 K, Small sample (50 mg) DSC | 159.84
238.15 K, Small sample (50 mg) DSC | 160.39
239.15 K, Small sample (50 mg) DSC | 160.99
240 K, relaxation calorimetry | 164.59
240.15 K, Small sample (50 mg) DSC | 161.64
241.15 K, Small sample (50 mg) DSC | 162.22
241.88 K, relaxation calorimetry | 165.73
242.15 K, Small sample (50 mg) DSC | 162.77
243.15 K, Small sample (50 mg) DSC | 163.32
244.15 K, Small sample (50 mg) DSC | 163.71
245.15 K, Small sample (50 mg) DSC | 164.33
246.15 K, Small sample (50 mg) DSC | 165.01
247.15 K, Small sample (50 mg) DSC | 165.5
248.15 K, Small sample (50 mg) DSC | 166.22
249.15 K, Small sample (50 mg) DSC | 167
250 K, relaxation calorimetry | 170.71
